Patent US10450549B2, “Aryloxyphenoxypropionate tolerance in turfrgass species and use of AAD1 as a selectable marker” (Dow AgroSciences, LLC, priority 2004, dated 2019)
Values joined by “and” are separate entries in the source; they are usually repeats but may differ in a detail not shown here. Identical values can stand only once.

Key:
[1] = test system: non-transformed (NT) ‘Shamrock’ Kentucky bluegrass; experiment: Haloxyfop-R-methyl on non-transformed Kentucky bluegrass controls; format: in vivo; details: similar treatment regimes
Protocol: The selected T0 plants were sprayed with haloxyfop-R-methyl (Gallant Super®, DOW AGROSCIENCES, INC.) at rates ranging from 140 to 560 g ae/ha. […] This rate would also control susceptible monocot weed species. Measured amounts were placed individually in 25 mL glass vials and dissolved in a 12 mL volume of 1.0% (v/v) Agri-Dex® Crop Oil Concentrate (COC).
Spray solutions were applied to the plant material with an overhead Mandel™ track sprayer equipped with a 8002E nozzles calibrated to deliver 187 L/ha over an application area of 0.503 square meters (m^2) at a spray height of 18 inches (46 cm) above average plant canopy height. Control plants were sprayed in the same manner with the COC blank.
The treated plants and control plants were placed in a greenhouse and watered by sub-irrigation to prevent wash-off of the test compounds. At various times after application, the condition of the test plants as compared with that of the untreated plants was determined visually and scored on a scale of 0 to 100 percent, where 0 corresponds to no injury or growth inhibition, and 100 corresponds to complete kill. Regenerated, non-transformed (NT) ‘Shamrock’ Kentucky bluegrass plants and/or seed-derived clonally propagated plants served as haloxyfop sensitive controls.

[2] = test system: AAD1 (v2)-transformed T1 Arabidopsis; experiment: T1 Arabidopsis response to postemergence herbicide, % visual injury 2 WAT: native AAD1 (v2) transformants; format: in vivo, Arabidopsis thaliana; details: for % Injury Ave / individuals with 20-40% injury / individuals with <20% injury / individuals with >40% injury: Native AAD1 (v2) gene, 2 WAT
Protocol: Freshly harvested T1 seed (transformed with native [AAD1 (v2)] or plant optimized [AAD1 (v3)] gene) was allowed to dry for 7 days at room temperature. T1 seed was sown in 26.5×51-cm germination trays (T.O. Plastics Inc., Clearwater, Minn.), each receiving a 200 mg aliquots of stratified T1 seed (˜10,000 seed) that had previously been suspended in 40 ml of 0.1% agarose solution and stored at 4° C. for 2 days to complete dormancy requirements and ensure synchronous seed germination.
Sunshine Mix LP5 (Sun Gro Horticulture Inc., Bellevue, Wash.) was covered with fine vermiculite and subirrigated with Hoagland's solution until wet, then allowed to gravity drain. Each 40 ml aliquot of stratified seed was sown evenly onto the vermiculite with a pipette and covered with humidity domes (KORD Products, Bramalea, Ontario, Canada) for 4-5 days. Domes were removed 1 day prior to initial transformant selection using glufosinate postemergence spray (selecting for the co-transformed PAT gene).
Five to six days after planting (DAP) and again 10 DAP, T1 plants (cotyledon and 2-4-1f stage, respectively) were sprayed with a 0.2% solution of Liberty herbicide (200 g ai/L glufosinate, Bayer Crop Sciences, Kansas City, Mo.) at a spray volume of 10 ml/tray (703 L/ha) using a DeVilbiss compressed air spray tip to deliver an effective rate of 280 g ai/ha glufosinate per application. Survivors (plants actively growing) were identified 5-7 days after the final spraying and transplanted individually into 3-inch pots prepared with potting media (Metro Mix 360). Transplanted plants were covered with humidity domes for 3-4 days and placed in a 22° C. growth chamber as before. Domes were subsequently removed and plants moved to the greenhouse (22+5° C., 50+30% RH, 14 h light:10 dark, minimum 500 μE/m^2s^1 natural+supplemental light) at least 1 day prior to testing for the ability of AAD1 (v3) (plant optimized gene) or AAD1 (v2) (native microbial gene) to provide phenoxy auxin herbicide resistance.
Random individual T1 plants selected for glufosinate resistance above were confirmed for expression of the PAT protein using a PAT ELISA kit (Part no. 7000045, Strategic Diagnostics, Inc., Newark, Del.) to non-destructively confirm fidelity of selection process (manufacturer's protocol). Plants were then randomly assigned to various rates of phenoxy herbicides (dichlorprop or 2,4-D). […] Elevated rates were applied in subsequent trials (50, 200, 800, or 3200 g ae/ha).
All auxin herbicide applications were made using the DeVilbiss sprayer as described above to apply 703 L/ha spray volume (0.4 ml solution/3-inch pot) or applied by track sprayer in a 187 L/ha spray volume. […] Dichlorprop used was technical grade (Sigma, St. Louis, Mo.) dissolved in DMSO and diluted in water (<1% DMSO final concentration). As herbicide rates increased beyond 800 g ae/ha, the pH of the spray solution became exceedingly acidic, burning the leaves of young, tender Arabidopsis plants and complicating evaluation of the primary effects of the herbicides. It became standard practice to apply these high rates of phenoxy herbicides in 200 mM Tris buffer (pH 9.0) to a final pH of ˜7-8.
Table 16. […] Response is presented in terms of % visual injury 2 WAT. […] Since each T1 is an independent transformation event, one can expect significant variation of individual T1 responses within a given rate. An arithmetic mean and standard deviation is presented for each treatment. The range in individual response is also indicated in the last column for each rate and transformation. PAT/Cry1F-transformed Arabidopsis served as an auxin-sensitive transformed control. Wildtype Arabidopsis is untransformed.

SMILES | injury of control, non-transgenic plants [1] | T1 plants surviving uninjured (<20% visual injury) ([2]; AAD1 (v2), 200 g ae/ha) [%] | % Injury Ave ([2]; 50 g ae/ha) [%] | individuals with 20-40% injury ([2]; 50 g ae/ha) | individuals with <20% injury ([2]; 50 g ae/ha) | individuals with >40% injury ([2]; 50 g ae/ha) | % Injury Ave ([2]; 200 g ae/ha) | individuals with 20-40% injury ([2]; 200 g ae/ha) | individuals with <20% injury ([2]; 200 g ae/ha) | individuals with >40% injury ([2]; 200 g ae/ha) | % Injury Ave ([2]; 800 g ae/ha) [%] | individuals with 20-40% injury ([2]; 800 g ae/ha) | individuals with <20% injury ([2]; 800 g ae/ha) | individuals with >40% injury ([2]; 800 g ae/ha)
CC(Oc1ccc(Oc2ncc(C(F)(F)F)cc2Cl)cc1)C(=O)O (centres unmarked) [haloxyfop] | 60-100% | – | – | – | – | – | – | – | – | – | – | – | – | –
O=C(O)COc1ccc(Cl)cc1Cl [2,4-D, 2,4-dichlorophenoxyacetic acid] | – | 56 | 14.8 | 16 | 55 | 9 | 34% and 34.1% | 11 | 45 | 24 | 52.5 | 32 | 11 | 37
